The term half-life denotes how long it takes for the measured level to halve. For orientation: inhibition means how much of the control response was suppressed. What is called IC50 is the concentration that inhibits the measured activity by half.

Molecules are shown by their SMILES.

We go through seven molecules from ChEMBL document CHEMBL6109085, “Furazanopyrazine-based novel promising anticancer agents interfering with the eicosanoid biosynthesis pathways by dual mPGES-1 and sEH inhibition” (Eur J Med Chem, 2025).

A short description of series [1]: Microsomal stability in human liver microsomes assessed as half-life preincubated for 5 mins followed by NADPH and UDP-GlcUA addition and measured after 30 to 120 mins by UHPLC analysis. Type of series: ADME, Microsome. Conditions: time 35-125 min.
Series [2] is described as follows: Microsomal stability in human liver microsomes assessed as intrinsic clearance preincubated for 5 mins followed by NADPH and UDP-GlcUA addition and measured after 30 to 120 mins by UHPLC analysis. Conditions: time 35-125 min, read-out: CLH. Type of series: ADME, Microsome.
The target in series [3] is T1, Bifunctional epoxide hydrolase 2 (Homo sapiens) (UniProt P34913).
T1 sequence (whole entry): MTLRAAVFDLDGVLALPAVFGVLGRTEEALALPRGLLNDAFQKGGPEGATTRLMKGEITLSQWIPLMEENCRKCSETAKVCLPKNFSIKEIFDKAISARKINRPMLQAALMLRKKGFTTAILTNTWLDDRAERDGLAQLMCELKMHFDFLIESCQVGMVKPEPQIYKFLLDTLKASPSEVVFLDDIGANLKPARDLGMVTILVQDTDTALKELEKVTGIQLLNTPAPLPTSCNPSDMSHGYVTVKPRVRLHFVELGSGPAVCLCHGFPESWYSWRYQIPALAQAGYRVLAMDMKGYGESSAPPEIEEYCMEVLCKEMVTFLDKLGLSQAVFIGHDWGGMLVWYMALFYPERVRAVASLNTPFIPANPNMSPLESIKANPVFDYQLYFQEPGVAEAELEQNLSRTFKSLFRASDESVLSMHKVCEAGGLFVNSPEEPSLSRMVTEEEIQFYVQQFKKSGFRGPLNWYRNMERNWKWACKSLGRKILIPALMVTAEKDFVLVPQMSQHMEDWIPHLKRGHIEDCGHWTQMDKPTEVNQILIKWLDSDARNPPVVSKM
The experiment in a line: Inhibition of recombinant human sEH extracted from baculovirus infected Sf9 cells using PHOME as substrate at 10 uM preincubated for 15 mins followed by PHOME substrate addition and measured after 60 mins by fluorescence based analysis relative to control. Conditions: time 75.0 min.

The next series concerns HCT-116. The experiment in a line: Antiproliferative activity against human HCT-116 cells assessed as reduction in cell survival index incubated for 48 hrs by MTT assay. Conditions: HCT-116, 48 h. For orientation: Tetrazolium dyes change colour on reduction, which living cells bring about.
Series [4] can be described thus: Cytotoxicity against human HaCaT cells assessed as reduction in cell survival index incubated for 48 hrs by MTT assay. Type of series: toxicity, cell-based.

As for `O=C1c2ccc(OCc3ccc(Br)cc3)cc2-c2nc3nonc3nc21`, in series [1], the half-life amounted to 3.97 h. Moreover, the microsomal CLint in series [2] amounted to 5.82 µL/min/mg.

Regarding `O=C1c2ccc(OCCc3ccc(F)cc3)cc2-c2nc3nonc3nc21`, the half-life in series [1] is 0.715 h. Moreover, in series [2], the microsomal CLint worked out at 32.3 µL/min/mg.

Regarding `O=C(COc1ccc2c(c1)-c1nc3nonc3nc1C2=O)OCc1ccccc1`, in series [3], the inhibition amounted to 48%. Moreover, the half-life in series [1] was 0.075 h. The microsomal CLint in series [2] amounted to 307 µL/min/mg.

With `O=C1c2ccc(OCCc3cccc(C(F)(F)F)c3)cc2-c2nc3nonc3nc21`, the IC50 in the series on HCT-116 is 8.3 µM. The IC50 at 48 h in series [4] was 17 µM. The half-life in series [1] was found to be 2.65 h. Also, the microsomal CLint in series [2] was 8.73 µL/min/mg.

Consider `O=C(Oc1ccc2c(c1)-c1nc3nonc3nc1C2=O)c1ccccc1`, for which the half-life in series [1] turned out to be 1.16 h. Also, in series [2], the microsomal CLint came out at 19.9 µL/min/mg.

For the molecule `O=C1c2ccc(OCc3ccccc3)cc2-c2nc3nonc3nc21`, the half-life in series [1] was found to be 2.74 h. In series [2], the microsomal CLint worked out at 8.42 µL/min/mg.

In the case of `O=C1c2ccc(OCCCc3ccccc3)cc2-c2nc3nonc3nc21`, the concentration for half-maximal inhibition (IC50) with HCT-116 was 6.4 µM. For the same molecule, the IC50 at 48 h in series [4] was found to be 28 µM. For the same molecule, the half-life in series [1] amounted to 5.43 h. Besides, the microsomal CLint in series [2] was 4.25 µL/min/mg.
